Key:
[1] = tested on: rabbit cell injection model of PVR; test: Rabbit cell injection model of PVR (RPE cells), intravitreous injection of retinoids; assay type: in vivo; details: for Any RD (%) / Total RD (%): 28 Days; for frequency and severity of traction retinal detachments versus vehicle: initial group, intravitreous injections of 100 μg; for frequency and severity of retinal detachments versus control: single intravitreous injection one day after RPE cell injection
Method: Briefly, pigmented rabbits were anesthetized with a subcutaneous injection of 5 mg/kg of xylazine and 25 mg/kg of ketamine, and the pupil of one eye was dilated with 2½% phenylephrine. Under direct observation 5×10^5 RPE cells were injected into the vitreous cavity just anterior to the optic nerve. […] .
Rabbits were examined by indirect ophthalmoscopy on days 7, 14 and 28 and traction retinal detachments were graded. […] . The localized clouds decreased in size and cleared over 2 to 3 weeks. There were no visible changes in the retina. […] .
It was felt that the hair loss and possibly the loss of appetite and death were due to systemic toxicity from drug that had gotten out of the eye. […] . None of the rabbits experienced hair loss and none died; their appetites appeared to be normal.

[2] = tested on: human RPE cells; test: [3H]thymidine incorporation / proliferation of cultured human RPE cells; details: for inhibition at 0.05 µM / inhibition at 0.1 µM / inhibition at 1 µM: Homo sapiens, RPE, read-out: Percent Inhibition of [3H]thymidine incorporation in RPE cells
Source text: Primary cultures of human retinal pigment epithelium (RPE) cells were established from eyes obtained from the Old Dominion Eye Bank (Richmond, Va.) or the Eye Bank of Maryland (Baltimore, Md.) using the technique described in P. A. Campochiaro, et al., Invest.
For [3H]thymidine incorporation, RPE cells at passage 3 or 4 were lightly trypsinized and plated in 16-mm wells of 24-well plates. The transfected cells were allowed to attach overnight and then the media containing 5% fetal bovine serum (FBS) were supplemented with retinoids or vehicle alone. Stock solutions (10^−3M) of retinoids were prepared in dimethylsulfoxide (DMSO) and stored as frozen aliquots until used; the highest final concentration of DMSO was 0.1% and was also used for control cultures. The media containing freshly prepared retinoids were changed every three days. At 7 or 10 days 2 μCi/ml of [^3H]thymidine (specific activity, 6.7 Ci/mM; New England Nuclear, Boston, Mass.) was added to the cultures and incorporation was measured as previously described (Leschey, supra).
The potency of retinoid agonists for inhibition of serum stimulated DNA synthesis in human RPE cells was tested. […] The cells were shifted to serum-free media containing the same concentration of retinoid and then pulsed with 10% serum for 18 hours, after which [^3H]thymidine incorporation was measured. Thymidine incorporation for cells grown in control medium was used to calculate the percent inhibition of thymidine incorporation induced by four concentrations of each retinoid (each concentration tested in triplicate) which were then used to generate each line.

[3] = tested on: traction retinal detachment in rabbits; test: Traction retinal detachment in rabbits after human RPE cells, intravitreal injection of 168 and 299; assay type: in vivo, rabbit
[4] = tested on: traction retinal detachment in rabbits; test: Traction retinal detachment in rabbits after human dermal fibroblasts, intravitreous lipid microvesicles
Source text: In this experiment the retinoid was incorporated into lipid microvesicles utilizing standard techniques.

[5] = tested on: RPE cells; test: RPE cell morphology after 10 days in retinoid; assay type: cell-based, human; details: 1 μm, 5% serum, on plastic
[6] = tested on: rabbit model of PVR; details: about 100 μg in biodegradable microspheres, vitreous cavity; cited from earlier work
[7] = tested on: traction retinal detachment in rabbits; test: Traction retinal detachment in rabbits after human dermal fibroblasts, subconjunctival injection
[8] = tested on: traction retinal detachment in rabbits; test: Traction retinal detachment in rabbits after human RPE cells, subconjunctival injection; assay type: in vivo, rabbit; details: subconjunctival 0.3 mg once a day for five days
Source text: Due to the toxicity of certain RAR agonists and because the effects of retinoids are delayed in onset and reversible, methods for sustained release of the retinoids were investigated. […] The therapeutic effect of the RAR specific agonists was greater than that of RA, which is an agonist for both RXRs and RARs. There were no signs of any toxicity to the retina.

[9] = tested on: rabbit model of PVR; details: 2 to 20 μg/ml SiO, 8 weeks; untreated controls 100%; cited from earlier work
[10] = tested on: traction retinal detachment in rabbits; test: Traction retinal detachment in rabbits after human dermal fibroblasts, subconjunctival lipid microvesicles; assay type: in vivo, rabbit; details: human dermal fibroblasts
[11] = target: T1, RARβ (Homo sapiens, UniProt P10826); test: Transactivation, ER/RAR-β hybrid receptor + ERE-CAT reporter cotransfected in HeLa cells
T1 sequence (P10826 183-417 limits assumed): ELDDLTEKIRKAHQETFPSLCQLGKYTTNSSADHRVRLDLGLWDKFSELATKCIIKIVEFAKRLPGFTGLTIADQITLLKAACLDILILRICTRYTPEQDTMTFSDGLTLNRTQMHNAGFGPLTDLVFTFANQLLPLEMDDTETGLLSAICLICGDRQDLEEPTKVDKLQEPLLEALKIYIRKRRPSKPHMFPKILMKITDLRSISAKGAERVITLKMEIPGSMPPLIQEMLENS

[12] = tested on: retinas of the rabbits; test: Ocular toxicity after single intravitreous injection, histopathology of retina; assay type: in vivo, rabbit; details: single intravitreous injection of 100 μg, two weeks after injection
Source text: The rabbits were killed two weeks after injection.

[13] = target: T2, RARγ (Homo sapiens, UniProt P13631); test: Transactivation, ER/RAR-γ hybrid receptor + ERE-CAT reporter cotransfected in HeLa cells
T2 sequence (P13631 185-419 limits assumed): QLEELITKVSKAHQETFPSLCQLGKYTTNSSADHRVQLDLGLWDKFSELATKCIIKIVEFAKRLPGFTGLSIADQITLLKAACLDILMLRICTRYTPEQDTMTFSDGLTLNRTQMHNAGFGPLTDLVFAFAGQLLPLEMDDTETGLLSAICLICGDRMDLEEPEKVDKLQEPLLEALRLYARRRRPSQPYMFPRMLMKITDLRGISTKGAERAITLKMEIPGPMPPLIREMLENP

[14] = target: T3, RXRα (Homo sapiens, UniProt P19793); test: Transactivation, ER/RXR-α hybrid receptor + ERE-CAT reporter cotransfected in HeLa cells
T3 sequence (P19793 227-458 limits assumed): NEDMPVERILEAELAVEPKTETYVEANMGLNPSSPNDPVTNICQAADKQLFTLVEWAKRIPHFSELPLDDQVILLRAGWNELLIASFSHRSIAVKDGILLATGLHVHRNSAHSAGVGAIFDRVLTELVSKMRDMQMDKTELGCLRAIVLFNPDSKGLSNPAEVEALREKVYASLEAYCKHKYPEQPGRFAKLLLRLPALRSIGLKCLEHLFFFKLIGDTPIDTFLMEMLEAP

[15] = 50 μg, single intravitreous injection
[16] = 100 μg intravitreous, two injections (day 1 and day 2 after cell injection)
[17] = 100 μg intravitreous, two injections
[18] = 100 μg, single intravitreous injection

In the case of `CC1=C(/C=C/C(C)=C/C=C/C(C)=C/C(=O)O)C(C)(C)CCC1` [All trans RA, all-trans retinoic acid, reference compound], the “Partial RD at 14 Days (number of eyes)” value [1, 15] is reported as 0, the “Partial RD at 28 Days (number of eyes)” value [1, 15] is reported as 0 and the “Total RD at 14 Days (number of eyes)” value [1, 15] is reported as 4. The “Total RD at 28 Days (number of eyes)” value [1, 15] was 4, the “Any RD (%)” value [1, 15] was 66.7% and the “Total RD (%)” value [1, 15] was 66.7%. For the same molecule, the “Partial RD at 14 Days (number of eyes)” value [1, 16] was 2, the “Partial RD at 28 Days (number of eyes)” value [1, 16] was 4 and the “Total RD at 14 Days (number of eyes)” value [1, 16] was 0. For the same molecule, the “Total RD at 28 Days (number of eyes)” value [1, 16] was 0, the “Any RD (%)” value [1, 17] was 44.4+ % and the “Total RD (%)” value [1, 17] was 0%. The “Partial RD at 14 Days (number of eyes)” value [1, 18] was 1, the “Partial RD at 28 Days (number of eyes)” value [1, 18] was 1 and the “Total RD at 14 Days (number of eyes)” value [1, 18] was 0. For the same molecule, the “Total RD at 28 Days (number of eyes)” value [1, 18] was 1, the “Any RD (%)” value [1, 18] was 28.6+ % and the “Total RD (%)” value [1, 18] was 14.3%. For the same molecule, the “frequency and severity of traction retinal detachments versus vehicle” value [1] was “fewer (p(0.05) and less severe traction retinal detachments”, the “frequency and severity of retinal detachments versus control” value [1] was “fewer (p(0.05) and less severe retinal detachments” and the inhibition at 0.05 µM [2] was 52.6%. The inhibition at 0.1 µM [2] was 78.3%, the inhibition at 1 µM [2] was 99.4% and the “inhibition of [3H]thymidine incorporation in RPE cells” value ([2]; incubation for 7 days, FIG. 1) was “dose-dependent inhibition”. For the same molecule, the “% Any RD” value [3] was 100%, the “% Total RD” value [3] was 0% and the “RD at 7 Days, Partial” value [3] was 0. The “RD at 7 Days, Total” value [3] was 0, the “RD at 14 Days, Partial” value [3] was 0 and the “RD at 14 Days, Total” value [3] was 0. For the same molecule, the “RD at 28 Days, Partial” value [3] was 2, the “RD at 28 Days, Total” value [3] was 0 and the “prevention of traction retinal detachment” value [4] was “not effective”. The “% Any RD” value ([4]; human dermal fibroblasts) was 67%, the “% Total RD” value ([4]; human dermal fibroblasts) was 67% and the “RD at 7 Days, Partial” value ([4]; human dermal fibroblasts) was 1. The “RD at 7 Days, Total” value ([4]; human dermal fibroblasts) was 0, the “RD at 14 Days, Partial” value ([4]; human dermal fibroblasts) was 1 and the “RD at 14 Days, Total” value ([4]; human dermal fibroblasts) was 1. The “RD at 28 Days, Partial” value ([4]; human dermal fibroblasts) was 0, the “RD at 28 Days, Total” value ([4]; human dermal fibroblasts) was 4 and the “RPE cell morphology / cell overgrowth” value [5] was “did not exhibit cell overgrowth”. For the same molecule, the “tractional retinal detachment (TRD)” value [6] was “significantly decreased tractional retinal detachment”, the “% Any RD” value [7] was 50% and the “% Total RD” value [7] was 0%. The “RD at 7 Days, Partial” value [7] was 0, the “RD at 7 Days, Total” value [7] was 0 and the “RD at 14 Days, Partial” value [7] was 0. The “RD at 14 Days, Total” value [7] was 0, the “RD at 28 Days, Partial” value [7] was 5 and the “RD at 28 Days, Total” value [7] was 0. For the same molecule, the “effect on retinal detachments” value [7] was “decreased the number of retinal detachments and slowed the rate at which they developed”, the “% Any RD” value [8] was 0% and the “% Total RD” value [8] was 0%. The “RD at 7 Days, Partial” value [8] was 0, the “RD at 7 Days, Total” value [8] was 0 and the “RD at 14 Days, Partial” value [8] was 0. For the same molecule, the “RD at 14 Days, Total” value [8] was 0, the “RD at 28 Days, Partial” value [8] was 0 and the “RD at 28 Days, Total” value [8] was 0. The “rate of retinal detachment” value [9] was 44.5%, the “% Any RD” value [10] was 63% and the “% Total RD” value [10] was 13%. The “RD at 7 Days, Partial” value [10] was 0, the “RD at 7 Days, Total” value [10] was 0 and the “RD at 14 Days, Partial” value [10] was 0. For the same molecule, the “RD at 14 Days, Total” value [10] was 1, the “RD at 28 Days, Partial” value [10] was 4 and the “RD at 28 Days, Total” value [10] was 1.

In the case of `C/C(=C\c1cc(C(=O)O)cs1)c1cc2c(cc1C)C(C)(C)CCC2(C)C` [Compound 701, 2-[(E)-2-(5,6,7,8-tetrahydro-3,5,5,8,8-pentamethylnaphthaleen-2-yl)propen-1-yl]thiophene-4-carboxylic acid], the “Partial RD at 14 Days (number of eyes)” value [1, 16] is reported as 3, the “Partial RD at 28 Days (number of eyes)” value [1, 16] is reported as 2 and the “Total RD at 14 Days (number of eyes)” value [1, 16] is reported as 3. The “Total RD at 28 Days (number of eyes)” value [1, 16] was 5, the “Any RD (%)” value [1, 17] was 87.5% and the “Total RD (%)” value [1, 17] was 62.5%. For the same molecule, the “Partial RD at 14 Days (number of eyes)” value [1, 18] was 2, the “Partial RD at 28 Days (number of eyes)” value [1, 18] was 1 and the “Total RD at 14 Days (number of eyes)” value [1, 18] was 2. The “Total RD at 28 Days (number of eyes)” value [1, 18] was 3, the “Any RD (%)” value [1, 18] was 80% and the “Total RD (%)” value [1, 18] was 60%. For the same molecule, the “frequency and severity of traction retinal detachments versus vehicle” value [1] was “did not differ from controls”, the “frequency and severity of retinal detachments versus control” value [1] was “not statistically different from controls” and the inhibition at 0.05 µM [2] was 12%. For the same molecule, the inhibition at 0.1 µM [2] was 48.8%, the inhibition at 1 µM [2] was 74.6% and the “inhibition of RPE [3H]thymidine incorporation” value ([2]; incubation for 7 or 10 days) was “much less effective inhibitor”. The EC50 [11] was 3000 nM, the “RPE cell morphology / cell overgrowth” value [5] was “failed to prevent cell overgrowth” and the “inner retinal edema, histopathology” value [12] was “a few focal areas of inner retinal edema”. For the same molecule, the “retinal necrosis, histopathology” value [12] was “a few focal areas of retinal necrosis”, the EC50 [13] was 1000 nM and the EC50 [14] was 100 nM.

— patent publication US6573271B2, “Method of preventing proliferation of retinal pigment epithelium by retinoic acid receptor agonists” (John Hopkins University School of Medicine, priority 1995, dated 2003)
